According to US10314843B2, “Combinations for the treatment of neoplasms using quiescent cell targeting and inhibitors of mitosis” (Felicitex Therapeutics, Inc., priority 2016, dated 2019):

What was measured:
Format in all cases: cell-based
[1] = system: SW620 cells; assay: CellTiter-Glo cell viability assay, SW620 cells; details: Homo sapiens, SW-620, SW620 cells
Text: (§1) The following cell lines were obtained from ATCC and cultured according to the ATCC recommendations: DMS273—small cell lung cancer cell line; H1975—non-small cell lung cancer cell line harboring L858R and T790M mutations in EGFR TK; A549—a non-small cell lung cancer cell line with wild type EGFR; LNCap—prostate cancer cell line; SW620—colon cancer cell line; MiaPaCa2—pancreatic cancer cell line; PANC1—pancreatic cancer cell line; OVCAR3—ovarian cancer cell line; SK-OV-3—ovarian cancer cell line.
(§2) For viability analysis, cells were seeded into 96-well plates at 2×10^3-6×10^3 cells/well; the plated number of cells depended on cell size and rate of proliferation aiming for approximately 50% confluency. After seeding, the cells were allowed to attach for 24 hours incubated at 37° C. in a humidified 5% CO2 atmosphere.
(§3) The treatments were performed using at least 6 different concentrations of a compound in 1:3 serial dilutions in DMSO such that the DMSO concentration in the cell medium was <1%. The cell cultures were incubated for an additional 96 hours in 5% CO2 incubator at 37° C. Treatments were performed in triplicate. Results were analyzed by CellTiter-Glo™ Luminescent Cell Viability Assay (Promega, cat. #G7571) according to the manufacturer's instructions using Spectra MAX Gemini Spectrophotometer (Molecular Devices).

[2] = system: DMS273 cells; assay: CellTiter-Glo cell viability assay, DMS273 cells; details: Homo sapiens, DMS-273, DMS273 cells
Text: as §1, §2, §3

[3] = system: HCC827 cells; assay: CellTiter-Glo cell viability assay, HCC827 cells; details: Homo sapiens
Protocol: as §2, §3

[4] = system: A549 cells; assay: CellTiter-Glo cell viability assay, A549 cells; details: Homo sapiens
Text: as §1, §2, §3

[5] = system: SK-OV-3 cells; assay: CellTiter-Glo cell viability assay, SK-OV-3 cells; details: Homo sapiens, SK-OV-3, SK-OV-3 cells
Text: as §1, §2, §3

[6] = system: OVCAR3 cells; assay: CellTiter-Glo cell viability assay, OVCAR3 cells; details: Homo sapiens, OVCAR-3, OVCAR3 cells
Text: as §1, §2, §3

[7] = system: LNCap cells; assay: CellTiter-Glo cell viability assay, LNCap cells; details: Homo sapiens
Text: as §1, §2, §3

[8] = system: DMS273 cells; assay: FACS cell cycle distribution (Acridine Orange), DMS273 cells; details: mitotic inhibitor alone, FBS+ media, 24 hours (2.7 nM paclitaxel; 1.1 nM vincristine; 8.1 nM vinorelbine)
Text: as §1
(§4) Cell cultures were seeded into 6-well plates at 3×10^5-6×10^5 cells/well; the plated number of cells depended on cell size and rate of proliferation, aiming for approximately 50% confluency. After seeding, the cells were allowed to attach for 24 hours while incubated at 37° C. in a humidified 5% CO2 atmosphere, and then treated with compounds for desired amount of time (usually 24 hours) incubating under same conditions. Then the cells were harvested by trypsinization, pooled with the floating cells, washed in PBS, and fixed in 70% ice-cold ethanol overnight. For Acridine Orange (AO) staining, fixed cells were washed once with ice-cold PBS, re-suspended in 100 μL PBS, followed by addition of 200 μL of permeabilizing solution and 600 μL AO staining solution. The measurements were performed with Guava easyCyte HT flow cytometer (EMD Millipore) using the blue laser for excitation at 488 nm, monitoring emission of the AO-DNA complex at 526 nm and AO-RNA complex at 650 nm. The complete protocol and composition of buffers are described in the literature (Darzynkiewicz Z, Juan G, and Srour E F (2004) Differential Staining of DNA and RNA (2004). Current Protocols in Cytometry, Chapter 7:Unit 7.3).

[9] = system: SW620 cells; assay: FACS cell cycle distribution (Acridine Orange), SW620 cells; details: paclitaxel alone (2 nM), FBS+ media, 24 hours
Text: as §1, §4

[10] = system: H1975 cells; assay: CellTiter-Glo cell viability assay, H1975 cells; details: Homo sapiens, NCI-H1975, H1975 cells
Text: as §1, §2, §3

Structure (SMILES)	EC50 ([1]; Compound I-5 not present)	EC50 ([1]; Compound I-5 present at 2 μM)	EC50 ([1]; Compound I-5 present at 4 μM)	EC50 ([2]; Compound I-7 not present)	EC50 ([2]; Compound I-7 present at 2 μM)	EC50 ([2]; Compound I-7 present at 4 μM)	EC50 ([3]; Compound I-7 not present)	EC50 ([4]; Compound I-7 not present)	EC50 ([4]; Compound I-7 present at 2 μM)	EC50 ([4]; Compound I-7 present at 4 μM)	EC50 ([5]; Compound I-7 not present)	EC50 ([5]; Compound I-7 present at 2 μM)	EC50 ([5]; Compound I-7 present at 4 μM)	EC50 ([6]; Compound I-7 not present)	EC50 ([6]; Compound I-7 present at 2 μM)	EC50 ([6]; Compound I-7 present at 4 μM)	EC50 ([5]; Compound I-7 present at 8 μM)	EC50 ([6]; Compound I-7 present at 3 μM)	pharmacological quiescence (fraction of cells in G0 phase) [8]	EC50 ([2]; Compound I-5 not present)	other results
CC(=O)O[C@@]12CO[C@@H]1C[C@H](O)[C@@]1(C)C(=O)[C@H](O)C3=C(C)[C@@H](OC(=O)[C@H](O)[C@@H](NC(=O)OC(C)(C)C)c4ccccc4)C[C@@](O)([C@@H](OC(=O)c4ccccc4)[C@H]21)C3(C)C [docetaxel]	2.85 nM	0.69 nM	< 0.015 nM	0.64 nM	0.38 nM	0.14 nM	1.8 nM	1.4 nM	0.6 nM	0.1 nM	2.5 nM	1.5 nM	0.3 nM	0.85 nM	0.52 nM	< 0.04 nM	–	–	–	–	EC50 ([3]; Compound I-7 present at 2 μM): 0.6 nM; EC50 ([3]; Compound I-7 present at 4 μM): 0.03 nM
CC(=O)O[C@H]1C(=O)[C@@]2(C)[C@H]([C@H](OC(=O)c3ccccc3)[C@]3(O)C[C@H](OC(=O)[C@H](O)[C@@H](NC(=O)c4ccccc4)c4ccccc4)C(C)=C1C3(C)C)[C@]1(OC(C)=O)CO[C@@H]1C[C@@H]2O [paclitaxel]	8.1 nM	2.3 nM	0.2 nM	2.7 nM	1.9 nM	0.9 nM	4.2 nM	4.8 nM	–	–	9.7 nM	9.4 nM	4.8 nM	3.3 nM	–	–	4.7 nM	2.8 nM	does not result in pharmacological quiescence	–	EC50 ([7]; Compound I-5 not present): 3.2 nM; EC50 ([7]; Compound I-5 present at 2 μM): 2.1 nM; EC50 ([7]; Compound I-5 present at 4 μM): 0.9 nM; EC50 ([3]; Compound I-7 present at 3 μM): 2.5 nM; EC50 ([3]; Compound I-7 present at 6 μM): 0.6 nM; EC50 ([4]; Compound I-7 present at 3 μM): 2.5 nM; EC50 ([4]; Compound I-7 present at 6 μM): 0.7 nM; EC50 ([5]; Compound I-7 present at 10 μM): 5.2 nM; EC50 ([6]; Compound I-7 present at 6 μM): 1.7 nM; pharmacological quiescence (fraction of cells in G0 phase) [9]: does not result in pharmacological quiescence
CC[C@]1(O)C[C@H]2CN(CCc3c([nH]c4ccccc34)[C@@](C(=O)OC)(c3cc4c(cc3OC)N(C=O)[C@H]3[C@@](O)(C(=O)OC)[C@H](OC(C)=O)[C@]5(CC)C=CCN6CC[C@]43[C@@H]65)C2)C1 [vincristine]	–	–	–	–	–	–	–	–	–	–	8.7 nM	–	2.1 nM	1.2 nM	0.8 nM	0.1 nM	1 nM	–	does not result in pharmacological quiescence	1.1 nM	EC50 ([2]; Compound I-5 present at 2 μM): 0.4 nM; EC50 ([2]; Compound I-5 present at 4 μM): < 0.04 nM; EC50 ([10]; Compound I-5 not present): 1.5 nM; EC50 ([10]; Compound I-5 present at 2 μM): 0.85 nM; EC50 ([10]; Compound I-5 present at 4 μM): 0.35 nM
CCC1=C[C@@H]2CN(C1)Cc1c([nH]c3ccccc13)[C@@](C(=O)OC)(c1cc3c(cc1OC)N(C)[C@H]1[C@@](O)(C(=O)OC)[C@H](OC(C)=O)[C@]4(CC)C=CCN5CC[C@]31[C@@H]54)C2 [vinorelbine]	–	–	–	–	–	–	–	27 nM	16 nM	6 nM	15.1 nM	10.1 nM	4.7 nM	2.4 nM	–	–	–	0.1 nM	does not result in pharmacological quiescence	1.1 nM	EC50 ([2]; Compound I-5 present at 2 μM): 0.4 nM; EC50 ([2]; Compound I-5 present at 4 μM): < 0.04 nM; EC50 ([6]; Compound I-7 present at 1 μM): 2.4 nM; EC50 ([10]; Compound I-5 not present): 9.5 nM; EC50 ([10]; Compound I-5 present at 2 μM): 5.2 nM; EC50 ([10]; Compound I-5 present at 4 μM): 2.1 nM
